Earlier results on two molecules are cited in patent publication US20130078290A1, “Gastroretentive Dosage Forms Of GABA Analogs” (Rubicon Research Private Limited, priority 2010, published 2013).

The structures appear in SMILES notation.

For data set [1] the following is noted: for Elimination half-life: in vivo.
The conditions of data set [2]: in water and in acidic and basic aqueous solutions.

For `CC(C)CC(CN)CC(=O)O` (centres unmarked) [pregabalin, 5-methyl-3-aminomethyl-hexanoic acid], the Elimination half-life result in data set [1] is listed as “about 6.3 hours”. Further, in data set [2], the Solubility entry was “freely soluble”.
In the case of `NCC1(CC(=O)O)CCCCC1` [gabapentin, 1-(Aminomethyl)cyclohexaneacetic acid], in data set [1] (dose in range of 300-400 mg), the Oral bioavailability result is given as “approximately 60%”. Further, the Elimination half-life in data set [1] was 5 to 7 h. In addition, the Solubility entry in data set [2] is “freely soluble”.
